In ChEMBL document CHEMBL1201862, “PubChem BioAssay data set” (2004):
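Where inhibition never reached the appropriate level, the endpoint shown equals the highest concentration tested. Otherwise, values were interpolated linearly from a five-concentration, 48-hour dose response in 96-well plates. At the GI50, growth is halved.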 Calls of active or inactive are those of the source. No stated cut-off is given here; in the data, active = GI50 up to about 1.1 µM and inactive = higher.

Columns and labels:
Test in all cases: NCI tumour cell line growth inhibition, 48 h
RPMI-8226 = system: RPMI-8226
M19-MEL = system: M19-MEL
SK-MEL-28 = system: SK-MEL-28
MOLT-4 = system: MOLT-4
IGROV-1 = system: IGROV-1
NCI-H23 = system: NCI-H23
XF498 = system: XF498
EKVX = system: EKVX
SNB-75 = system: SNB-75
KM12 = system: KM12
HCT-15 = system: HCT-15
HOP-62 = system: HOP-62
COLO 205 = system: COLO 205
U-251 = system: U-251
HOP-18 = system: HOP-18
OVCAR-3 = system: OVCAR-3
NCI-H460 = system: NCI-H460
HT-29 = system: HT-29
HOP-92 = system: HOP-92
SF-539 = system: SF-539
HL-60 = system: HL-60
OVCAR-5 = system: OVCAR-5
UACC-257 = system: UACC-257
RXF 393 = system: RXF 393
K562 = system: K562
OVCAR-4 = system: OVCAR-4
SNB-78 = system: SNB-78
SK-MEL-5 = system: SK-MEL-5
SK-OV-3 = system: SK-OV-3
A549 = system: A549
CCRF-CEM = system: CCRF-CEM
NCI-H226 = system: NCI-H226
A498 = system: A498
HCT-116 = system: HCT-116
OVCAR-8 = system: OVCAR-8
CAKI-1 = system: CAKI-1
MCF7 = system: MCF7
HCC 2998 = system: HCC 2998
SW-620 = system: SW-620
UO-31 = system: UO-31
DLD-1 = system: DLD-1
KM-20L2 = system: KM-20L2
NCI/ADR-RES = system: NCI/ADR-RES
SK-MEL-2 = system: SK-MEL-2
Malme-3M = system: Malme-3M
NCI-H522 = system: NCI-H522
SF-268 = system: SF-268
DMS-273 = system: DMS-273
DMS-114 = system: DMS-114
SF-295 = system: SF-295
UACC-62 = system: UACC-62
SN12C = system: SN12C
LOX IMVI = system: LOX IMVI
SNB-19 = system: SNB-19

SMILES: C=C1C(=O)OC2CC1CCC1(C)OC1CCC(C)=CCCC2(C)O (centres undefined)
- GI50 (RPMI-8226): 1.51 µM (inactive)
- GI50 (M19-MEL): 4.2 µM (inactive)
- GI50 (SK-MEL-28): 4.06 µM (inactive)
- GI50 (MOLT-4): 1.87 µM (inactive)
- GI50 (IGROV-1): 7.18 µM (inactive)
- GI50 (NCI-H23): 1.79 µM (inactive)
- GI50 (XF498): 3.73 µM (inactive)
- GI50 (EKVX): 6.87 µM (inactive)
- GI50 (SNB-75): 7.08 µM (inactive)
- GI50 (KM12): 5.52 µM (inactive)
- GI50 (HCT-15): 1.85 µM
- GI50 (HOP-62): 10.3 µM (inactive)
- GI50 (COLO 205): 1.89 µM (inactive)
- GI50 (U-251): 11.8 µM (inactive)
- GI50 (HOP-18): 1.47 µM (inactive)
- GI50 (OVCAR-3): 3.33 µM (inactive)
- GI50 (NCI-H460): 3.06 µM (inactive)
- GI50 (HT-29): 4.06 µM (inactive)
- GI50 (HOP-92): 2.26 µM (inactive)
- GI50 (SF-539): 4.62 µM (inactive)
- GI50 (HL-60): 0.927 µM (active)
- GI50 (OVCAR-5): 10 µM (inactive)
- GI50 (UACC-257): 4.78 µM (inactive)
- GI50 (RXF 393): 1.2 µM (inactive)
- GI50 (K562): 1.83 µM (inactive)
- GI50 (OVCAR-4): 4.78 µM (inactive)
- GI50 (SNB-78): 7.74 µM (inactive)
- GI50 (SK-MEL-5): 4 µM (inactive)
- GI50 (SK-OV-3): 16.7 µM (inactive)
- GI50 (A549): 8.36 µM (inactive)
- GI50 (CCRF-CEM): 1.03 µM (active)
- GI50 (NCI-H226): 3.61 µM (inactive)
- GI50 (A498): 2.13 µM (inactive)
- GI50 (HCT-116): 2.72 µM (inactive)
- GI50 (OVCAR-8): 2.33 µM (inactive)
- GI50 (CAKI-1): 2.4 µM (inactive)
- GI50 (MCF7): 3.82 µM (inactive)
- GI50 (HCC 2998): 7.01 µM (inactive)
- GI50 (SW-620): 1.12 µM (inactive)
- GI50 (UO-31): 9.04 µM (inactive)
- GI50 (DLD-1): 1.81 µM (inactive)
- GI50 (KM-20L2): 2.82 µM (inactive)
- GI50 (NCI/ADR-RES): 1.8 µM (inactive)
- GI50 (SK-MEL-2): 6.12 µM (inactive)
- GI50 (Malme-3M): 3.76 µM (inactive)
- GI50 (NCI-H522): 1.06 µM (active)
- GI50 (SF-268): 5.36 µM (inactive)
- GI50 (DMS-273): 3.1 µM (inactive)
- GI50 (DMS-114): 2.74 µM (inactive)
- GI50 (SF-295): 16.8 µM (inactive)
- GI50 (UACC-62): 3.4 µM (inactive)
- GI50 (SN12C): 5.08 µM (inactive)
- GI50 (LOX IMVI): 2.24 µM (inactive)
- GI50 (SNB-19): 14.1 µM (inactive)
